“And” between values parts separate entries of the source, which are not always exact repeats. Equal entries are not always repeated. Inconclusive results and toxic doses are left out. Cut-off read from the data, not from the text of the source: active = T/C of 150% or more; inactive = T/C below 125%.
Tested on: L1210 leukemia ip in BDF1 mice, survival T/C
Experiment: NCI In Vivo Anticancer Drug Screen. Data for tumor model L1210 Leukemia (intraperitoneal) in B6D2F1 (BDF1) mice
Details: endpoint: mean survival time, higher = longer survival
In short: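 Mice bearing the transplanted tumor received compound or vehicle. Survival of the treated group was divided by that of the vehicle-treated control group to give the ratio.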

[1] = dose: 100.0 mg/kg/injection, schedule: Q01DX009 (ip), vehicle: saline with Tween-80
[2] = dose: 200.0 mg/kg/injection, schedule: Q01DX009 (ip), vehicle: saline with Tween-80
[3] = dose: 100.0 mg/kg/injection, schedule: Q04DX003 (ip), vehicle: Klucel (hydroxypropylcellulose) (HPC)
[4] = dose: 100.0 mg/kg/injection, schedule: Q01DX001 (ip), vehicle: Klucel (hydroxypropylcellulose) (HPC)
[5] = dose: 200.0 mg/kg/injection, schedule: Q01DX001 (ip), vehicle: Klucel (hydroxypropylcellulose) (HPC)
[6] = dose: 400.0 mg/kg/injection, schedule: Q01DX001 (ip), vehicle: Klucel (hydroxypropylcellulose) (HPC)
[7] = dose: 100.0 mg/kg/injection, schedule: Q01DX001 (ip), vehicle: carboxymethylcellulose (CMC)
[8] = dose: 100.0 mg/kg/injection, schedule: Q04DX002 (ip), vehicle: saline with Tween-80
[9] = dose: 100.0 mg/kg/injection, schedule: Q04DX003 (ip), vehicle: saline
[10] = dose: 200.0 mg/kg/injection, schedule: Q04DX003 (ip), vehicle: saline
[11] = dose: 400.0 mg/kg/injection, schedule: Q04DX003 (ip), vehicle: saline
[12] = dose: 12.5 mg/kg/injection, schedule: Q04DX003 (ip), vehicle: saline
[13] = dose: 25.0 mg/kg/injection, schedule: Q04DX003 (ip), vehicle: saline

Measured: T/C

CCCCN(CCCC)c1ccc(C(=O)O)cc1
inactive: [1] 100 % of control | dose: 100.0 mg/kg/injection, schedule: Q04DX003 (ip), vehicle: saline with Tween-80 100 % of control | [2] 102 % of control | dose: 200.0 mg/kg/injection, schedule: Q04DX003 (ip), vehicle: saline with Tween-80 98 % of control

CC1(C)N=C(N)N=C(N)N1c1ccc(Cl)cc1Cl
inactive: dose: 20.0 mg/kg/injection, schedule: Q04DX003 (ip), vehicle: Klucel (hydroxypropylcellulose) (HPC) 104 % of control | dose: 25.0 mg/kg/injection, schedule: Q01DX001 (ip), vehicle: saline with Tween-80 97 % of control | dose: 25.0 mg/kg/injection, schedule: Q01DX009 (ip), vehicle: Klucel (hydroxypropylcellulose) (HPC) 105 % of control | dose: 40.0 mg/kg/injection, schedule: Q04DX003 (ip), vehicle: Klucel (hydroxypropylcellulose) (HPC) 100 % of control | dose: 50.0 mg/kg/injection, schedule: Q01DX001 (ip), vehicle: saline with Tween-80 93 % of control | dose: 50.0 mg/kg/injection, schedule: Q01DX009 (ip), vehicle: Klucel (hydroxypropylcellulose) (HPC) 94 % of control | dose: 80.0 mg/kg/injection, schedule: Q04DX003 (ip), vehicle: Klucel (hydroxypropylcellulose) (HPC) 94 % of control | dose: 100.0 mg/kg/injection, schedule: Q01DX001 (ip), vehicle: saline with Tween-80 97 % of control | dose: 100.0 mg/kg/injection, schedule: Q01DX001 (ip), vehicle: saline 100 % of control | [3] 94 % of control

CCOC(=O)c1[nH]c(C)c(CC(C(=O)OCC)C(=O)OCC)c1C
inactive: dose: 25.0 mg/kg/injection, schedule: Q04DX003 (ip), vehicle: Klucel (hydroxypropylcellulose) (HPC) 97 % of control | dose: 50.0 mg/kg/injection, schedule: Q04DX003 (ip), vehicle: Klucel (hydroxypropylcellulose) (HPC) 93 % of control | [4] 101 % of control | [3] 95 % of control | [5] 95 % of control | [6] 98 % of control

Cc1ccc(NC(=O)N(C)N=O)cc1
inactive: dose: 17.7 mg/kg/injection, schedule: Q01DX009 (ip), vehicle: carboxymethylcellulose (CMC) 118 % of control | dose: 26.6 mg/kg/injection, schedule: Q01DX009 (ip), vehicle: carboxymethylcellulose (CMC) 117 % of control | dose: 40.0 mg/kg/injection, schedule: Q01DX009 (ip), vehicle: carboxymethylcellulose (CMC) 120 % of control | dose: 50.0 mg/kg/injection, schedule: Q01DX001 (ip), vehicle: Klucel (hydroxypropylcellulose) (HPC) 119 % of control | dose: 60.0 mg/kg/injection, schedule: Q01DX009 (ip), vehicle: carboxymethylcellulose (CMC) 88 % of control | dose: 89.0 mg/kg/injection, schedule: Q01DX001 (ip), vehicle: carboxymethylcellulose (CMC) 107 % of control | [4] 111 % of control | [7] 116 % of control | dose: 133.0 mg/kg/injection, schedule: Q01DX001 (ip), vehicle: carboxymethylcellulose (CMC) 122 % of control | [5] 114 % of control | [6] 114 % of control

COCC(=O)C(C(C)=O)C(c1ccc2c(c1)OCO2)C(C(C)=O)C(=O)COC (stereo not drawn)
inactive: [1] 87 % of control

CCOC(=O)c1nc2c(OC)nn(O)cc-2c1Br
inactive: dose: 25.0 mg/kg/injection, schedule: Q04DX002 (ip), vehicle: saline with Tween-80 92 % of control | dose: 50.0 mg/kg/injection, schedule: Q04DX002 (ip), vehicle: saline with Tween-80 89 % of control | [8] 96 % of control

CC(N=Nc1ccccc1)/N=N/c1nn[nH]n1 (stereo not drawn)
inactive: [3] 100 % of control | dose: 200.0 mg/kg/injection, schedule: Q04DX003 (ip), vehicle: Klucel (hydroxypropylcellulose) (HPC) 94 % of control | dose: 400.0 mg/kg/injection, schedule: Q04DX003 (ip), vehicle: Klucel (hydroxypropylcellulose) (HPC) 96 % of control

CCCCCCC#CC(=O)OCCCCC
inactive: [8] 96 % of control | dose: 200.0 mg/kg/injection, schedule: Q04DX002 (ip), vehicle: saline with Tween-80 100 % of control | dose: 400.0 mg/kg/injection, schedule: Q04DX002 (ip), vehicle: saline with Tween-80 96 % of control

NNC(=O)CCSc1ccccc1
inactive: dose: 12.5 mg/kg/injection, schedule: Q01DX009 (ip), vehicle: saline with Tween-80 89 % of control | dose: 25.0 mg/kg/injection, schedule: Q01DX009 (ip), vehicle: saline with Tween-80 99 % of control | dose: 50.0 mg/kg/injection, schedule: Q01DX009 (ip), vehicle: saline with Tween-80 105 % of control

NOCCCCCCON
inactive: [9] 95 % of control | [10] 97 % of control | [11] 95 % of control

Clc1cc(Cl)nc(N2CC2)n1
inactive: dose: 0.02 mg/kg/injection, schedule: Q01DX Z (ip), vehicle: methylcellulose (MC) 91 % of control | dose: 6.25 mg/kg/injection, schedule: Q01DX009 (ip), vehicle: acetone 108 % of control | dose: 12.5 mg/kg/injection, schedule: Q01DX009 (ip), vehicle: acetone 111 % of control | [12] 98 % of control | [13] 92 % of control

COC1CCCCC1Br (stereo not drawn)
inactive: dose: 100.0 mg/kg/injection, schedule: Q01DX009 (ip), vehicle: Klucel (hydroxypropylcellulose) (HPC) 104 % of control | dose: 200.0 mg/kg/injection, schedule: Q01DX009 (ip), vehicle: Klucel (hydroxypropylcellulose) (HPC) 98 % of control | dose: 400.0 mg/kg/injection, schedule: Q01DX009 (ip), vehicle: Klucel (hydroxypropylcellulose) (HPC) 98 % of control

COC(=O)C(N)CSCc1ccccc1 (stereo not drawn)
inactive: [9] 87 % of control | [10] 89 % of control | [11] 94 % of control

Oc1ccc2ccccc2c1C=Nc1ccccc1
inactive: dose: 100.0 mg/kg/injection, schedule: Q01DX001 (ip), vehicle: other 91 % of control | dose: 200.0 mg/kg/injection, schedule: Q01DX001 (ip), vehicle: other 98 % of control | dose: 400.0 mg/kg/injection, schedule: Q01DX001 (ip), vehicle: other 96 % of control

C=C1C(=O)OCC1(C(=O)OCC)C(=O)OCC
inactive: dose: 5.0 mg/kg/injection, schedule: Q01DX009 (ip), vehicle: saline 98 % of control | dose: 10.0 mg/kg/injection, schedule: Q01DX009 (ip), vehicle: saline 103 % of control | dose: 20.0 mg/kg/injection, schedule: Q01DX009 (ip), vehicle: saline 95 % of control

COc1ccc(CN2CCCN(Cc3ccc(OC)cc3)C2c2ccc(OC)cc2)cc1
inactive: [1] 92 % of control | dose: 100.0 mg/kg/injection, schedule: Q04DX003 (ip), vehicle: acetone 94 % of control | [2] 98 % of control and 87 % of control | dose: 200.0 mg/kg/injection, schedule: Q04DX003 (ip), vehicle: acetone 97 % of control | dose: 400.0 mg/kg/injection, schedule: Q01DX009 (ip), vehicle: saline with Tween-80 96 % of control | dose: 400.0 mg/kg/injection, schedule: Q04DX003 (ip), vehicle: acetone 95 % of control

NC(=S)c1ccc(N)cc1
inactive: [12] 105 % of control | [13] 103 % of control | dose: 50.0 mg/kg/injection, schedule: Q04DX003 (ip), vehicle: saline 97 % of control and 102 % of control | dose: 75.0 mg/kg/injection, schedule: Q04DX003 (ip), vehicle: saline 106 % of control | dose: 115.0 mg/kg/injection, schedule: Q04DX003 (ip), vehicle: saline 97 % of control

COc1ccc(C(CC(=O)O)c2cc(OC)c(OC)c(OC)c2)cc1OC (stereo not drawn)
inactive: [7] 92 % of control | dose: 200.0 mg/kg/injection, schedule: Q01DX001 (ip), vehicle: carboxymethylcellulose (CMC) 93 % of control | dose: 400.0 mg/kg/injection, schedule: Q01DX001 (ip), vehicle: carboxymethylcellulose (CMC) 93 % of control

— PubChem BioAssay AID248 (DTP/NCI, 2004)
